Publication PMC7893915, “Assessing cross-resistance within the pyrethroids in terms of their interactions with key cytochrome P450 enzymes and resistance in vector populations” (Parasites & Vectors, 2021)

Tests used:
Helicoverpa armigera = tested on: Helicoverpa armigera; set-up: method as in PMID 17685437; details: pyrethroids with a polyfluorobenzyl group instead of the phenoxybenzyl group; ref [48]; cited from earlier work
[1] = tested on: An. funestus strain, FUMOZ-R; set-up: method as in PMID 26930058; details: strain with upregulated P450 levels without any target-site mutations; ref [47]; cited from earlier work
Ae. aegypti = assay: WHO adult susceptibility test on field samples, Ae. aegypti; type: in vivo, Aedes aegypti; details: standard diagnostic doses
Text: The analyses conducted using data from An. gambiae (s.l.) samples were repeated using data from the An. funestus subgroup, An. arabiensis, An. coluzzii, An. funestus and An. gambiae samples (Additional file 2). The same approach was also used for susceptibility test data from Aedes albopictus and Ae. aegypti to investigate whether the same relationships could be detected in these vectors of arboviruses, as detailed in Additional file 3.
Additional File 3: Cross-resistance to pyrethroids within wild populations of Aedes vectors […]
If structural diversity within the pyrethroids is also associated with divergence in resistance within the Aedes vectors of arboviruses, this would lend weight to the findings for malaria vectors presented in the main manusc ript. Like the Anopheles vectors, target-site mutations and metabolic resistance are thought to be the main resistance mechanisms in Aedes mosquitoes. At least ten mutations in the Aedes aegypti Vgsc gene have been identified and the most widespread mutation, […]
mutations and is also associated with DDT resistance. More recently, the V1016G mutation has been found in Ae. albopictus in Viet Nam and Italy, and both this allele and the F1534C and F1534S […]
expression of cytochrome P450s has also been implicated in pyrethroid resistance within Aedes mosquitoes and there is evidence that metabolic resistance can confer cross -resistance to multiple pyrethroids. For example, over-expression of CYP9J28 is associated with metabolic resistance to […]
target site- and P450-mediated resistance in Ae. aegypti strains found variation in resistance to seven pyrethroids and hypothesised that some patterns of resistance could be linked to structural differences, but also noted that general conclusions are challenging to make without a greater number of compounds with a single modification to compare. No studies of structure activity relationships using a wide range of pyrethroids and P450s from Aedes mosquitoes have been conducted to-date, but data on resistance in wild populations are available. A wider range of pyrethroids are more typically tested by studies of resistance in Aedes vectors, compared to Anopheles vectors, although these studies are also more varied in terms of diagnostic dose, bioass ay method and life cycle stage, making comparisons across studies difficult. Here we selected studies that used a common experimental design and investigated correlations in resistance to pairs of pyrethroids mirroring part of the work on Anopheles vectors presented in the main manuscript.
We identified all instances within a public insecticide resistance database where an Aedes field sample had been subdivided among tests for different pyrethroids. We then identified the most commonly used bioassay type across the new pyrethroid dataset, which was the WHO adult susceptibility test as described for malaria vectors, and the most commonly used diagnostic dose for […]
each compound (Table S2). […]
removed. Paired results were then extracted, and the mean values for the Pearson’s correlation coefficient were calculated for each pyrethroid pair using 1,000 bootstaps in SPSS Statistics v25.
Table S5. Diagnostic doses and data volumes for each pyrethroid.
Pyrethroid Most common dose Number of data points
The number of data points available for each pyrethroid from an Ae. aegypti sample that was used to test at least one other pyrethroid, using standard WHO susceptibility tests and standard diagnostic doses, is given.

Anopheles sinensis = tested on: Anopheles sinensis; set-up: method as in PMID 24159535; details: resistance ratios using LC50 values from a susceptible strain; most susceptible to bifenthrin, cyfluthrin and etofenprox, in that order; ref [55]; cited from earlier work
Gambiae Complex = details: ID 100156; F0, larval collection, 5/2009-4/2010, Chano, Ethiopia; WHO Bioassay 1998; ref Massebo F et al. Parasites Vectors. 2013;6; cited from earlier work

| Compound | effect on cross-resistance, in words (Helicoverpa armigera) | effectiveness with or without piperonyl butoxide (PBO), in words [1] | Mean percent mortality (SE) (Ae. aegypti; Pair 2 cyfluthrin vs etofenprox, N 22 paired Ae. aegypti samples) | Mean percent mortality (SE) (Ae. aegypti; Pair 5 permethrin vs cyfluthrin, N 79 paired Ae. aegypti samples) | Mean percent mortality (SE) (Ae. aegypti; Pair 7 λ-cyhalothrin vs cyfluthrin, N 25 paired Ae. aegypti samples) | Mean percent mortality (SE) (Ae. aegypti; Pair 10 deltamethrin vs cyfluthrin, N 72 paired Ae. aegypti samples) | susceptibility of larvae, rank in words (Anopheles sinensis) | mortality (Gambiae Complex) |
| --- | --- | --- | --- | --- | --- | --- | --- | --- |
| Cc1c(F)c(F)c(COC(=O)[C@@H]2[C@H](/C=C(\Cl)C(F)(F)F)C2(C)C)c(F)c1F (racemic) [tefluthrin] | overcame most of this resistance |  |  |  |  |  |  |  |
| CC1(C)[C@H](C=C(Cl)Cl)[C@H]1C(=O)OCc1c(F)c(F)cc(F)c1F [transfluthrin] | overcame most of this resistance | effective in the absence of the generic P450 inhibitor |  |  |  |  |  |  |
| CC1(C)C(C=C(Cl)Cl)C1C(=O)OC(C#N)c1ccc(F)c(Oc2ccccc2)c1 (stereo not drawn) [cyfluthrin] |  |  | 87.78 (3.56) percent | 89.27 (1.61) percent | 85.01 (3.81) percent | 88.58 (1.73) percent | most susceptible | 50 |
